Assay results taken from patent US12692287B2, “Polymorphic form of reduced B-nicotinamide mononucleotide calcium salt, and preparation method and use therefor” (EffePharm (Shanghai) Co., Ltd., priority 2023, dated 2026).
Like-named read-outs stand apart in the source and are kept apart here.

Tests used:
[1] = Stability: solids placed openly in a stability test chamber at 25° C. and 65% RH, purity by HPLC; assay type: physicochemical; conditions: calcium salt
Excerpt: NMNH is the reduced form of NMN, sensitive to air, easily oxidized, and unstable, making it unsuitable for long-term storage and market promotion. WO2023160405 (A1) reported the NMNH disodium salt compound and its crystalline and amorphous forms. […] Such stability fails to meet the shelf-life requirements for commercial products, hindering market promotion. The solid forms of NMNH calcium salt crystalline form A, crystalline form B, crystalline form C, crystalline form D, and crystalline form E were placed openly in a stability test chamber at 25° C. and 65% RH to evaluate their stability and hygroscopicity.

[2] = Hygroscopicity: solids placed openly at 25° C. and 65% RH, water content by KF; assay type: physicochemical
Method: The solid forms of NMNH calcium salt crystalline form A, crystalline form B, crystalline form C, crystalline form D, and crystalline form E were placed openly in a stability test chamber at 25° C. and 65% RH to evaluate their stability and hygroscopicity.

[3] = cited from earlier work; for Purity (HPLC, area %) / Appearance of the solid: 25° C., 65% RH, data of WO2023160405 (A1); for Purity: 25° C. and 65% RH / air, WO2023160405 (A1)
[4] = WO2023160405 (A1); cited from earlier work

Structure (SMILES)	Purity (HPLC, area %) ([1]; 0 day) [area %]	Purity (HPLC, area %) ([1]; 5 days) [area %]	Purity (HPLC, area %) ([1]; 60 days) [area %]	Water content of NMNH calcium salt crystalline form (KF) ([2]; 0 day) [%]	Water content of NMNH calcium salt crystalline form (KF) ([2]; 5 days) [%]	Water content of NMNH calcium salt crystalline form (KF) ([2]; 60 days) [%]	other results
NC(=O)C1=CN([C@@H]2O[C@H](COP(=O)(O)O)[C@@H](O)[C@H]2O)C=CC1.[Ca+2] [NMNH calcium salt Crystalline Form B, reduced β-nicotinamide mononucleotide calcium salt]	99.75	99.75	99.75	13.3	13.2	12.9	
NC(=O)C1=CN([C@@H]2O[C@H](COP(=O)(O)O)[C@@H](O)[C@H]2O)C=CC1.[Ca+2] [NMNH calcium salt Crystalline Form C, reduced β-nicotinamide mononucleotide calcium salt]	99.78	99.78	99.79	9.5	9.5	9.3	
NC(=O)C1=CN([C@@H]2O[C@H](COP(=O)([O-])[O-])[C@@H](O)[C@H]2O)C=CC1.[Na+].[Na+] [NMNH disodium salt Crystalline Form A, NMNH disodium salt]							Purity (HPLC, area %) ([3]; 0 day, disodium salt): 99.33 area %; Purity (HPLC, area %) ([3]; 1 day, disodium salt): 99.27 area %; Purity (HPLC, area %) ([3]; 5 days): 99.01 area %; Purity ([3]; after 5 days): 99.01%; Purity ([3]; text, initial value before exposure, listed as NMNH disodium salt crystalline Form A, disodium salt): 99.33%; Purity ([3]; text, initial value before exposure, listed as NMNH disodium salt crystalline form A, disodium salt): 99.33%
NC(=O)C1=CN([C@@H]2O[C@H](COP(=O)([O-])[O-])[C@@H](O)[C@H]2O)C=CC1.[Na+].[Na+] [NMNH disodium salt crystalline form B, NMNH disodium salt]							Behaviour of the crystalline form when stored in the air [4]: absorb water and transform into crystalline form A
NC(=O)C1=CN([C@@H]2O[C@H](COP(=O)([O-])[O-])[C@@H](O)[C@H]2O)C=CC1.[Na+].[Na+] [NMNH disodium salt Amorphous Form, NMNH disodium salt]							Appearance of the solid ([3]; 0 day, disodium salt): (powder); Purity (HPLC, area %) ([3]; 0 day, disodium salt): 99.30 area %; Appearance of the solid ([3]; 0 day, listed as amorphous solid of NMNH disodium salt, disodium salt): powder; Purity (HPLC, area %) ([3]; 1 day, disodium salt): 99.02 area %; Appearance of the solid ([3]; after 1 day, disodium salt): (oil); Appearance of the solid ([3]; after 1 day, listed as NMNH disodium salt amorphous powder, disodium salt): oil; Appearance of the solid ([3]; after 1 day, listed as amorphous solid of NMNH disodium salt, disodium salt): oil; Purity ([3]; after 1 day): 99.02%; Purity ([3]; initial value before exposure, listed as NMNH disodium salt amorphous powder, disodium salt): 99.30%; Purity ([3]; initial value before exposure, listed as amorphous solid of NMNH disodium salt, disodium salt): 99.30%
NC(=O)C1=CN([C@@H]2O[C@H](COP(=O)(O)O)[C@@H](O)[C@H]2O)C=CC1.[Ca+2] [NMNH calcium salt Crystalline Form D, reduced β-nicotinamide mononucleotide calcium salt]	99.64	99.64	99.64	18.4	18.4	18.3	
NC(=O)C1=CN([C@@H]2O[C@H](COP(=O)(O)O)[C@@H](O)[C@H]2O)C=CC1.[Ca+2] [NMNH calcium salt Crystalline Form E, reduced β-nicotinamide mononucleotide calcium salt]	99.60	99.60	99.59	20.3	20.3	20.0	
NC(=O)C1=CN([C@@H]2O[C@H](COP(=O)(O)O)[C@@H](O)[C@H]2O)C=CC1.[Ca+2] [NMNH calcium salt Crystalline Form A, reduced β-nicotinamide mononucleotide calcium salt]	99.83	99.82	99.82	9.2	9.2	9.0	
